# Measured values: patent US11465980B2, “6-membered aza-heterocyclic containing delta-opioid receptor modulating compounds, methods of using and making the same” (Trevena, Inc., priority 2015, dated 2022)
# How the values were obtained:
# adult male C57 mice = experiment: Tail suspension test (TST); assay type: in vivo, mouse; conditions: Mus musculus; route sc, po; p < 0.05 compared to vehicle-treated mice; read-out: Active TST Dose
# Description: The experiments were performed using adult male C57 mice (6-10 weeks of age, 20-30 g, Hilltop Lab, PA). The mice were housed in standard rodent cages with stainless steel mesh wire bar lids in groups of 4 with controlled temperature and light cycle (6:00 a.m.-6:00 p.m.). Animals were given free access to food (Harlan Teklad Global 18% protein (Madison, Wis.)) and water during a minimum 2-day habituation period to the laboratory. Animals that were used in the study were handled, housed, and sacrificed (using compressed CO2) in accord with the current NIH guidelines regarding the use and care of laboratory animals, and all applicable local, state, and federal regulations and guidelines. Animals are identified by cage number, and by markings applied to the proximal tip of the tail using a permanent marker. Group sizes (n=8, and therefore 30-50 animals per study) provide reliable estimates of treatment effects, and this species and strain of mouse has been recognized as appropriate for pharmacology studies.
# To measure efficacy of the compounds the compounds were tested using a tail suspension test. The tail suspension test is a behavioral test used to evaluate the efficacy of antidepressant drugs in rodents. In the TST, mice (n=8/group) were suspended by the tail with tape approximately 30-50 cm above the lab bench. Mice are positioned such that the base of their tail is perpendicular to the lab bench. Each mouse is given 1 trial that last 6 minutes. The total duration of immobility is calculated as the percentage of time that the mouse is immobile. The duration of immobility is the main parameter measured. This is calculated from the cumulated time during which the animals is absent of initiated movements including passive swaying. When antidepressant drugs are administered, immobility is decreased by a variety of classes of antidepressant drugs. One or more of the compounds show antidepressant activity.
# rat [1] = experiment: Hemilesioned rat 6-OHDA model (bar, drag, rotarod tests); assay type: in vivo; conditions: route sc, p < 0.05 vs vehicle
# Description: Compounds were tested for efficacy in reversing akinesia and bradykinesia in two well accepted rodent Parkinson's disease (PD) models; the haloperidol-induced rat catalepsy and 6-OHDA rat hemiparkinson lesion models.
# In the hemilesioned rat 6-OHDA model, the effect of compound on the akinetic response to lesioning of the contralateral forepaw in the bar test and stepping activity as measured by the drag test were determined. […] This assay examines efficacy for reversing PD motor symptoms (i.e. akinesia/bradykinesia and gait abilities). The behavioral readouts will include immobility time in the bar test (akinesia), number of steps in the drag test (akinesia/bradykinesia) and time spent on rod in the rotarod test (overall gait ability, gross motor behavior). Compounds were administered subcutaneously and efficacy was evaluated between 30 and 90 min post dose.
# mouse [2] = experiment: Tactile allodynia produced by intraplantar Freund's Complete Adjuvant, von Frey (mouse); assay type: in vivo; conditions: route po, p < 0.05 vs vehicle
# Description: (§1) Animals were acclimated to the vivarium for at least 48 hr prior to behavioral testing. Inflammation was induced for both rodent species with the administration of an intraplantar (subcutaneous injection into the plantar surface of the hind paw, i.pl.) injection of 0.10 ml Freund's Complete Adjuvant (FCA).
# For mouse studies, the experiments were conducted 48 hours after FCA administration. Tactile allodynia was measured using a series of von Frey monofilaments. These filaments are bendable, plastic and intended to poke, not penetrate, the skin. Animals were placed in a Plexiglas chamber (approximately 10 cm×20 cm×25 cm) and allowed to habituate for 5-10 minutes. The chamber was positioned on top of a mesh screen so that von Frey monofilaments can be presented to the plantar surface of the hind paw that is inflamed. The measurement of tactile sensitivity for the injected hind paw is obtained using the up/down method (LaBuda and Little, 2005, J Neurosci. Methods, 144, 175) with […]. Each trial will start with a von Frey force of 0.6 grams delivered to the hind paw for approximately 1-2 seconds. If there was no withdrawal response, the next higher force was be delivered. If there was a response, the next lower force was delivered. This procedure was performed until no response was made at the highest force (2 grams) or until four stimuli are administered following the initial response. The 50% paw withdrawal threshold for the hind paw was be calculated using the following formula: [Xth]log=[vFi]log+ky where [vFr] is the force of the last von Frey used, k is the average interval (in log units) between the von Frey monofilaments, and y is a value that depends upon the pattern of withdrawal responses (Dixon, Annual Review Pharmacol Toxicol, 1980, 20, 441).
# rat [3] = experiment: Mechanical allodynia after Freund's Complete Adjuvant, Randall-Selitto (rat); assay type: in vivo; conditions: route sc, p < 0.05 vs vehicle
# Description: as §1
# For rat studies, the experiments were conducted 24 hours after CFA administration. Rats are tested for mechanical allodynia in a Randall-Selitto apparatus. The inflamed paw is put on a pedestal and a pointed force of increasing intensity (0 to 250 grams) is applied to the paw. When the animal struggles to withdraw from the force the test is stopped and the force to induce that struggle is recorded. Data may be presented as mean grams of force to withdrawal or a percentage of the maximum possible effect.
# rat [4] = experiment: Tactile allodynia produced by nitroglycerin (migraine model, rat); assay type: in vivo; conditions: route sc, nitroglycerin 10 mg/kg ip, p < 0.05 vs vehicle
# mouse [5] = experiment: Tactile allodynia produced by nitroglycerin (migraine model, mouse); assay type: in vivo; conditions: route sc, nitroglycerin 10 mg/kg ip, p < 0.05 vs vehicle, read-out: Active Migraine Doses
# Description: Compounds were tested for efficacy in rodent models of nitroglycerine induced migraine. In this model both rats and mice can be induced to have a behavioral response consistent with the progression of a migraine attack by the intraperitoneal injection of nitroglycerin. In this test mice or rats (n=8/group) are given an intraperitoneal injection of nitroglycerin at 10 mg/kg. After 90 minutes the animals are subcutaneously dosed with test compound. A measurement of mechanical allodynia will be obtained using the up/down method with seven von Frey monofilaments. There is a specific series used for rat and mouse. Each monofilament is delivered to the hind paw for approximately 1-2 seconds. If there is a response, the next lower force will be delivered. This procedure will be performed until no response was made at the highest force or until four stimuli are administered following the initial response. The 50% paw withdrawal threshold for the hind paw will be calculated using the following formula: [Xth]log=[vFr]log+ky where [vFr] is the force of the last von Frey used, k is the average interval (in log units) between the von Frey monofilaments, and y is a value that depends upon the pattern of withdrawal responses. Testing for tactile sensitivity will be performed and a withdrawal value will be assigned as the tactile sensitivity (expressed in grams of force required to elicit a response) for the injected paw for each animal. Data is presented as the mean grams required to produce a hind paw withdrawal from the von Frey stimulus. […] Compounds found to be effective in this model of migraine at the doses indicated, although other doses may also be active. Other compounds described herein were not necessarily tested, but are expected to be able have some level of efficacy.
smiles,measurement,setting,value
"COc1ccc([C@@H]2CCN(CCc3ccccc3)[C@H](C)[C@H]2COc2ccc3c(c2)C(=O)NC3)cc1 [Compound B0707, (−)-6-{[(trans, trans)-4-(4-methoxyphenyl)-2-methyl-1-(2-phenylethy)piperidin-3-yl]methoxy}-2,3-dihydro-1H-isoindol-1-one]",minimal effective dose,adult male C57 mice,≤ 30 mg/kg
same,Active Dose (hemilesioned rat 6-OHDA model),rat [1],≤30 mg/kg
same,Active CFA Dose,mouse [2],≤30 mg/kg
same,Active CFA Dose,rat [3],≤10 mg/kg
same,Active Migraine Doses,rat [4],≤10 mg/kg
same,minimal effective dose,mouse [5],≤ 10 mg/kg
